Experimental data published in US20140315886A1, “QUINAZOLINES AS THERAPEUTIC COMPOUNDS AND RELATED METHODS OF USE” (OTSUKA PHARMACEUTICAL CO., LTD., priority 2011, published 2014).
Structures can show the parent of a compound that is named as a salt.

Biological target: T1, purified STEP46 enzyme (Homo sapiens, UniProt P54829)
T1 sequence (P54829 197-565 limits assumed): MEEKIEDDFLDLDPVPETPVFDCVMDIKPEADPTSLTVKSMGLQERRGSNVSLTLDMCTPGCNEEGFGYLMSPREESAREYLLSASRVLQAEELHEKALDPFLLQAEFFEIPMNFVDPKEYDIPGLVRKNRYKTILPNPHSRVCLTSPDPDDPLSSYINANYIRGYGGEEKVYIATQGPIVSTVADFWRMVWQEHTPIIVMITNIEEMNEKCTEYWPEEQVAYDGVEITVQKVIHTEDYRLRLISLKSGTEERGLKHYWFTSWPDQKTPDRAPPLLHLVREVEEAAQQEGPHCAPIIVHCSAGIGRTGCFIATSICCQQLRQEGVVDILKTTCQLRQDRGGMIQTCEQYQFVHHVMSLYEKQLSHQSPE
Assay: STEP46 biochemical assay (DiFMUP fluorescence phosphatase assay)
Conditions: DiFMUP 10 μM, read-out: STEP IC50
Outline: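 Purified human STEP46 preincubated 30 min at room temperature with compounds in Hepes/DTT/Brij35 buffer (2% DMSO final), then reacted with 10 μM DiFMUP for 90 min at 27°C; fluorescence read at 360/460 nm. IC50 from four-parameter fit; activation shown as negative % inhibition at 25, 50, 100 uM.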

SMILES | IC50
CNc1nc(-c2cccnc2)nc2c(F)c(-c3ccsc3)ccc12 [Compound 527] | 1 to 10 µM
CCOc1ccc2nc(-c3cccnc3)nc(N3CCc4ccc(Cl)cc43)c2c1 [Compound 5] | 1 to 10 µM
CNc1nc(-c2cccnc2)nc2cc(OC)c(-c3cccc(F)c3F)cc12 [Compound 230] | 1 to 10 µM
CNc1nc(-c2cccnc2)nc2c(F)cc(-c3cccc(C#N)c3)cc12 [Compound 570] | < 1 µM
CNc1nc(-c2cccnc2)nc2c(F)c(-c3ccc(F)c(F)c3)ccc12 [Compound 517] | 1 to 10 µM
CNc1nc(-c2cccnc2)nc2c(-c3cccc(C#N)c3)ccc(OC)c12 [Compound 489, 3—(5-methoxy-4-(methylamino)-2-(pyridin-3-yl)quinazolin-8-yl)benzonitrile dihydrochloride] | 1 to 10 µM
CNc1nc(-c2cccnc2)nc2c(F)c(-c3cccs3)ccc12 [Compound 533] | 1 to 10 µM
Fc1cccc(-c2ccc3c(N4CCc5cc(Cl)ccc54)nc(-c4cccnc4)nc3c2)c1F [Compound 108] | 1 to 10 µM
CNc1nc(-c2cnccn2)nc2cc(-c3cc(F)cc(F)c3)ccc12 [Compound 398] | 1 to 10 µM
COc1ccc2c(N3CCc4cc(Cl)ccc43)nc(-c3cccnc3)nc2c1 [Compound 12] | 1 to 10 µM
CNc1nc(-c2cnccn2)nc2cc(-c3ccc(F)c(F)c3)ccc12 [Compound 397] | 1 to 10 µM
CNc1nc(-c2cccnc2)nc2cc(F)c(-c3cccc(C#N)c3)cc12 [Compound 589] | 1 to 10 µM
CNc1nc(-c2cccnc2)nc2c(OC)cc(-c3cccc(F)c3F)cc12 [Compound 194] | 1 to 10 µM
Clc1ccc2c(c1)CCN2c1nc(-c2cccnc2)nc2ccc(-c3ccc4c(c3)OCO4)cc12 [Compound 76] | 1 to 10 µM
CNc1nc(-c2cccnc2)nc2cc(-c3ccc(C)o3)ccc12 [Compound 273] | 1 to 10 µM
CNc1nc(-c2cccnc2)nc2c(C)c(-c3cc(F)c(F)cc3F)ccc12 [Compound 287] | > 10 µM
CNc1nc(-c2cnccn2)nc2cc(-c3ccccc3F)ccc12 [Compound 391] | 1 to 10 µM

SMILES | IC50
Cc1c(-c2cccc(C#N)c2)ccc2c(N(C)C)nc(-c3cccnc3)nc12 [Compound 290] | > 10 µM
CNc1nc(-c2cccnc2)nc2c(F)c(-c3cc(F)cc(F)c3F)ccc12 [Compound 523] | < 1 µM
CNc1nc(-c2cnccn2)nc2ccc(-c3cc(F)cc(F)c3)c(F)c12 [Compound 980] | 1 to 10 µM
CNc1nc(-c2cccnc2)nc2c(F)c(-c3cccc(C)c3)ccc12 [Compound 525] | 1 to 10 µM
CNc1nc(-c2cccnc2)nc2cc(-c3cc(F)cc(OCC(=O)N(C)C)c3)ccc12 [Compound 143] | 1 to 10 µM
CNc1nc(-c2cccnc2)nc2cc(-c3ccccc3F)c(F)cc12 [Compound 552] | 1 to 10 µM
Clc1ccc2c(c1)CCN2c1nc(-c2cccnc2)nc2cc(Br)ccc12 [Compound 14] | 1 to 10 µM
CNc1nc(-c2cccnc2)nc2c(-c3ccc(F)c(F)c3)cccc12 [Compound 278] | 1 to 10 µM
CNc1nc(-c2cccnc2)nc2c(OC)cc(-c3cccc(Cl)c3)cc12 [Compound 305] | 1 to 10 µM
CNc1nc(-c2cccnc2)nc2c(F)cc(-c3cccc(OC)c3)cc12 [Compound 574] | 1 to 10 µM
CNc1nc(-c2cccnc2)nc2c(Cl)cc(-c3cccc(F)c3F)cc12 [Compound 243] | 1 to 10 µM
CNc1nc(-c2cccnc2)nc2c(F)c(-c3ccc4[nH]ncc4c3)ccc12 [Compound 535] | 1 to 10 µM
CNc1nc(-c2cccnc2)nc2c(-c3cccc(F)c3)cccc12 [Compound 274] | 1 to 10 µM
CNc1nc(-c2cccnc2)nc2c(-c3cccc(F)c3F)ccc(OC)c12 [Compound 492] | 1 to 10 µM
CNc1nc(-c2cccnc2)nc2c(F)c(-c3ccc(OC)cc3)ccc12 [Compound 518] | 1 to 10 µM
Clc1ccc2nc(-c3cccnc3)nc(N3CCc4cccnc43)c2c1 [Compound 61] | 1 to 10 µM
CCCOc1ccc2nc(-c3cccnc3)nc(N3CCc4cc(Cl)ccc43)c2c1 [Compound 137] | < 1 µM

Next, values leading:

IC50 | SMILES
1 to 10 µM | COc1ccc(-c2ccc3nc(-c4cccnc4)nc(NCc4ccccn4)c3c2)cc1 [Compound 344]
> 10 µM | CNc1nc(-c2cccnc2)nc2ccc(-c3cccc(S(C)(=O)=O)c3)cc12 [Compound 245]
1 to 10 µM | CC(Nc1nc(-c2cccnc2)nc2ccc(-c3cccc(F)c3)cc12)c1ccccc1 (centres unmarked) [Compound 604]
1 to 10 µM | CNc1nc(-c2cccnc2)nc2c(F)cc(-c3cc(F)ccc3F)cc12 [Compound 572]
1 to 10 µM | CC(Nc1nc(-c2cccnc2)nc2ccc(-c3cccc(F)c3F)cc12)c1ccccc1 (centres unmarked) [Compound 606]
1 to 10 µM | CNc1nc(-c2cccnc2)nc2cc(-c3ccc(F)c(F)c3)c(F)cc12 [Compound 558]
1 to 10 µM | CC(Nc1nc(-c2cccnc2)nc2ccc(-c3ccc(F)cc3)cc12)c1ccccc1 (centres unmarked) [Compound 605]
1 to 10 µM | CNc1nc(-c2cccnc2)nc2c(OC)cc(-c3cc(F)ccc3F)cc12 [Compound 252]
1 to 10 µM | CNc1nc(-c2cccnc2)nc2cc(-c3ccc(F)cc3OC)ccc12 [Compound 322]
1 to 10 µM | CCOc1ccc2nc(-c3cccnc3)nc(Nc3ccc(C)cn3)c2c1 [Compound 56]
1 to 10 µM | CNc1nc(-c2cccnc2)nc2ccc(-c3ccc(F)cc3C)cc12 [Compound 247]
> 10 µM | Cc1ccc2c(c1)CCN2c1nc(-c2cccnc2)nc2ccc(-c3cc(F)cc(F)c3)cc12 [Compound 80]
> 10 µM | CN(C)c1nc(-c2cccnc2)nc2ccc(-c3ccc(C4CC4)cc3)cc12 [Compound 308]
1 to 10 µM | CC(Nc1nc(-c2cccnc2)nc2ccc(-c3ccccc3F)cc12)c1ccccn1 (centres unmarked) [Compound 366]
1 to 10 µM | CCOc1cccc(-c2ccc3c(NC)nc(-c4cccnc4)nc3c2)c1 [Compound 141]
1 to 10 µM | CC(Nc1nc(-c2cccnc2)nc2cc(-c3ccc(F)c(F)c3)ccc12)c1ccccn1 (centres unmarked) [Compound 369]
1 to 10 µM | CNc1nc(-c2cnccn2)nc2cc(-c3ccc(F)cc3)ccc12 [Compound 393]
1 to 10 µM | Fc1cncc(Nc2nc(-c3cccnc3)nc3cc(Cl)ccc23)c1 [Compound 50]
1 to 10 µM | CNc1nc(-c2cccnc2)nc2cc(Cl)c(-c3ccc(F)cc3F)cc12 [Compound 246]
1 to 10 µM | CNc1nc(-c2cccnc2)nc2c(F)c(-c3cccc(F)c3)ccc12 [Compound 510]
1 to 10 µM | Fc1ccc(-c2ccc3nc(-c4cccnc4)nc(N4CCc5cccnc54)c3c2)cc1 [Compound 443]
> 10 µM | CNc1nc(-c2cccnc2)nc2ccc(-c3cc(F)cc(F)c3)c(OC)c12 [Compound 488]

IC50 | SMILES
1 to 10 µM | CNc1nc(-c2cccnc2)nc2ccc(-c3c(F)cccc3Cl)cc12 [Compound 241]
1 to 10 µM | Cc1ccc2c(c1)CCN2c1nc(-c2cccnc2)nc2ccc(-c3ccc(C#N)cc3)cc12 [Compound 81]
1 to 10 µM | CNc1nc(-c2cccnc2)nc2cc(-c3ccc(F)cc3C)ccc12 [Compound 321]
< 1 µM | CNc1nc(-c2cccnc2)nc2ccc(-c3cccc4[nH]c(=O)oc34)cc12 [Compound 475]
1 to 10 µM | Fc1ccc(-c2ccc3nc(-c4cccnc4)nc(N4CCc5cc(Cl)ccc54)c3c2)c(F)c1 [Compound 72]
1 to 10 µM | c1ccc(CNc2nc(-c3cccnc3)nc3ccc(-c4cccs4)cc23)nc1 [Compound 601]
1 to 10 µM | Fc1ccc(-c2ccc3nc(-c4cccnc4)nc(Nc4ccc(F)cn4)c3c2)cc1 [Compound 436]
1 to 10 µM | Fc1ccc(-c2ccc3nc(-c4cccnc4)nc(Nc4cc(F)ccn4)c3c2)cc1 [Compound 442]
< 1 µM | Cn1ccc2cc(-c3ccc4nc(-c5cccnc5)nc(NCc5ccccn5)c4c3)ccc21 [Compound 342]
1 to 10 µM | Fc1ccc(-c2ccc3nc(-c4cccnc4)nc(N4CCC4)c3c2)c(F)c1 [Compound 411]
1 to 10 µM | CNc1nc(-c2cnccn2)nc2cc(-c3cccc(F)c3)ccc12 [Compound 392]
1 to 10 µM | CNc1nc(-c2cccnc2)nc2cc(-c3cccc(F)c3)c(F)cc12 [Compound 550]
1 to 10 µM | CNc1nc(-c2cnccn2)nc2cc(-c3cc(F)ccc3F)ccc12 [Compound 396]
1 to 10 µM | COc1ccc2nc(-c3cccnc3)nc(Nc3ccc(F)cn3)c2c1 [Compound 24]
< 1 µM | Fc1ccc(-c2ccc3nc(-c4cccnc4)nc(-c4cscn4)c3c2)c(F)c1 [Compound 421, 4-(6-(2,4-difluorophenyl)-2-(pyridin-3-yl)quinazolin-4-yl)thiazole]
1 to 10 µM | Cc1noc(C)c1-c1nc(-c2cccnc2)nc2ccc(-c3ccc(F)cc3F)cc12 [Compound 422]
1 to 10 µM | CNc1nc(-c2cccnc2)nc2ccc(-c3ccnc(C#N)c3)cc12 [Compound 167]
> 10 µM | CNc1nc(-c2cccnc2)nc2ccc(-c3cccc(C)c3Cl)cc12 [Compound 268]
> 10 µM | Nc1nc(-c2cncnc2)nc2ccc(-c3cccc(F)c3)cc12 [Compound 213]
1 to 10 µM | CNc1nc(-c2cccnc2)nc2c(F)cc(-c3ccc(OC)cc3)cc12 [Compound 573]
1 to 10 µM | COc1ccc2nc(-c3cccnc3)nc(Nc3cncc(F)c3)c2c1 [Compound 25]
